Assay results as given in PubChem BioAssay (NCI).
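Cultured in 96-well plates, cells were exposed to test compound for 48 hours across five concentrations. GI50: concentration for 50% inhibition of growth. TGI: concentration producing complete growth inhibition.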

How the values were obtained:
Experiment in all cases: NCI tumour cell line growth inhibition, 48 h
786-0 renal = test system: 786-0 renal
A498 renal = test system: A498 renal
A549 NSCLC = test system: A549 NSCLC
ACHN renal = test system: ACHN renal
BT-549 breast = test system: BT-549 breast
CAKI-1 renal = test system: CAKI-1 renal
CCRF-CEM leukemia = test system: CCRF-CEM leukemia
COLO 205 colon = test system: COLO 205 colon
DU-145 prostate = test system: DU-145 prostate
EKVX NSCLC = test system: EKVX NSCLC
HCC-2998 colon = test system: HCC-2998 colon
HCT-116 colon = test system: HCT-116 colon
HCT-15 colon = test system: HCT-15 colon
HOP-62 NSCLC = test system: HOP-62 NSCLC
HOP-92 NSCLC = test system: HOP-92 NSCLC
HS 578T breast = test system: HS 578T breast
HT29 colon = test system: HT29 colon
IGROV1 ovarian = test system: IGROV1 ovarian
K-562 leukemia = test system: K-562 leukemia
KM12 colon = test system: KM12 colon
M14 melanoma = test system: M14 melanoma
MCF7 breast = test system: MCF7 breast
MDA-MB-231 breast = test system: MDA-MB-231 breast
MDA-MB-435 = test system: MDA-MB-435
MOLT-4 leukemia = test system: MOLT-4 leukemia
NCI-H226 lung = test system: NCI-H226 lung
NCI-H23 lung = test system: NCI-H23 lung
NCI-H522 lung = test system: NCI-H522 lung
NCI/ADR-RES ovarian = test system: NCI/ADR-RES ovarian
OVCAR-3 ovarian = test system: OVCAR-3 ovarian
OVCAR-4 ovarian = test system: OVCAR-4 ovarian
OVCAR-5 ovarian = test system: OVCAR-5 ovarian
OVCAR-8 ovarian = test system: OVCAR-8 ovarian
PC-3 prostate = test system: PC-3 prostate
RPMI-8226 leukemia = test system: RPMI-8226 leukemia
RXF 393 renal = test system: RXF 393 renal
SF-268 CNS = test system: SF-268 CNS
SF-295 CNS = test system: SF-295 CNS
SF-539 CNS = test system: SF-539 CNS
SK-MEL-2 melanoma = test system: SK-MEL-2 melanoma
SK-MEL-28 melanoma = test system: SK-MEL-28 melanoma
SK-MEL-5 melanoma = test system: SK-MEL-5 melanoma
SK-OV-3 ovarian = test system: SK-OV-3 ovarian
SN12C renal = test system: SN12C renal
SNB-19 CNS = test system: SNB-19 CNS
SNB-75 CNS = test system: SNB-75 CNS
SR leukemia = test system: SR leukemia
SW-620 colon = test system: SW-620 colon
T-47D breast = test system: T-47D breast
TK-10 renal = test system: TK-10 renal
U251 CNS = test system: U251 CNS
UACC-257 melanoma = test system: UACC-257 melanoma
UACC-62 melanoma = test system: UACC-62 melanoma
UO-31 renal = test system: UO-31 renal
HL-60(TB) leukemia = test system: HL-60(TB) leukemia
LOX IMVI melanoma = test system: LOX IMVI melanoma
NCI-H460 lung = test system: NCI-H460 lung

SMILES: Cc1cc2c3c(nc4ccccc42)C(=O)c2ccccc2-c3n1
- TGI (786-0 renal): > 100 µM
- TGI (A498 renal): 42.3 µM
- TGI (A549 NSCLC): 44.9 µM
- TGI (ACHN renal): > 100 µM
- TGI (BT-549 breast): 48.4 µM
- TGI (CAKI-1 renal): 60.7 µM
- TGI (CCRF-CEM leukemia): 73.3 µM
- TGI (COLO 205 colon): > 100 µM
- TGI (DU-145 prostate): > 100 µM
- TGI (EKVX NSCLC): > 100 µM
- TGI (HCC-2998 colon): 53.9 µM
- TGI (HCT-116 colon): 75.4 µM
- TGI (HCT-15 colon): 16.8 µM
- TGI (HOP-62 NSCLC): 23.5 µM
- TGI (HOP-92 NSCLC): > 100 µM
- TGI (HS 578T breast): 46.7 µM
- TGI (HT29 colon): 60.2 µM
- TGI (IGROV1 ovarian): > 100 µM
- TGI (K-562 leukemia): 15.1 µM
- TGI (KM12 colon): 14.5 µM
- TGI (M14 melanoma): 27.3 µM
- TGI (MCF7 breast): 51.2 µM
- TGI (MDA-MB-231 breast): 78.1 µM
- TGI (MDA-MB-435): 3.11 µM
- TGI (MOLT-4 leukemia): 24.1 µM
- TGI (NCI-H226 lung): 67 µM
- TGI (NCI-H23 lung): 15.9 µM
- TGI (NCI-H522 lung): 14.4 µM
- TGI (NCI/ADR-RES ovarian): 38.5 µM
- TGI (OVCAR-3 ovarian): 0.906 µM
- TGI (OVCAR-4 ovarian): > 100 µM
- TGI (OVCAR-5 ovarian): > 100 µM
- TGI (OVCAR-8 ovarian): 34.8 µM
- TGI (PC-3 prostate): 80.9 µM
- TGI (RPMI-8226 leukemia): > 100 µM
- TGI (RXF 393 renal): > 100 µM
- TGI (SF-268 CNS): > 100 µM
- TGI (SF-295 CNS): 60.4 µM
- TGI (SF-539 CNS): 61.2 µM
- TGI (SK-MEL-2 melanoma): 47.8 µM
- TGI (SK-MEL-28 melanoma): 43.3 µM
- TGI (SK-MEL-5 melanoma): 3.1 µM
- TGI (SK-OV-3 ovarian): 84 µM
- TGI (SN12C renal): > 100 µM
- TGI (SNB-19 CNS): > 100 µM
- TGI (SNB-75 CNS): 29 µM
- TGI (SR leukemia): 37.2 µM
- TGI (SW-620 colon): 35.9 µM
- TGI (T-47D breast): > 100 µM
- TGI (TK-10 renal): > 100 µM
- TGI (U251 CNS): > 100 µM
- TGI (UACC-257 melanoma): > 100 µM
- TGI (UACC-62 melanoma): 4.06 µM
- TGI (UO-31 renal): > 100 µM

SMILES: O=C(Nc1ccc(Cl)cc1)c1cccc(NC2=C(Cl)C(=O)N(Cc3ccccc3)C2=O)c1
- GI50 (786-0 renal): 7.83 µM
- TGI (786-0 renal): 20.9 µM
- GI50 (A498 renal): 19.9 µM
- TGI (A498 renal): 47.1 µM
- GI50 (A549 NSCLC): 14.8 µM
- TGI (A549 NSCLC): 28 µM
- GI50 (ACHN renal): 14.4 µM
- TGI (ACHN renal): 27.5 µM
- GI50 (BT-549 breast): 2.16 µM
- TGI (BT-549 breast): 13.2 µM
- GI50 (CAKI-1 renal): 3.5 µM
- TGI (CAKI-1 renal): 15.7 µM
- GI50 (CCRF-CEM leukemia): 2.73 µM
- TGI (CCRF-CEM leukemia): 12.3 µM
- GI50 (COLO 205 colon): 21.7 µM
- TGI (COLO 205 colon): > 100 µM
- GI50 (DU-145 prostate): 6.39 µM
- TGI (DU-145 prostate): 19.7 µM
- GI50 (EKVX NSCLC): 27.3 µM
- TGI (EKVX NSCLC): > 100 µM
- GI50 (HCC-2998 colon): 3.83 µM
- TGI (HCC-2998 colon): 20 µM
- GI50 (HCT-116 colon): 6.29 µM
- TGI (HCT-116 colon): 19.7 µM
- GI50 (HCT-15 colon): 12.2 µM
- TGI (HCT-15 colon): 26.9 µM
- GI50 (HL-60(TB) leukemia): 4.37 µM
- TGI (HL-60(TB) leukemia): 18.9 µM
- GI50 (HOP-62 NSCLC): 10.3 µM
- TGI (HOP-62 NSCLC): 22 µM
- GI50 (HOP-92 NSCLC): 9.85 µM
- TGI (HOP-92 NSCLC): 21.5 µM
- GI50 (HS 578T breast): 13.2 µM
- TGI (HS 578T breast): 46.3 µM
- GI50 (HT29 colon): 32.4 µM
- TGI (HT29 colon): > 100 µM
- GI50 (IGROV1 ovarian): 2.61 µM
- TGI (IGROV1 ovarian): 18.1 µM
- GI50 (K-562 leukemia): 5.83 µM
- TGI (K-562 leukemia): 28.3 µM
- GI50 (KM12 colon): 48.5 µM
- TGI (KM12 colon): > 100 µM
- GI50 (LOX IMVI melanoma): 11.1 µM
- TGI (LOX IMVI melanoma): 23.2 µM
- GI50 (M14 melanoma): 14.5 µM
- TGI (M14 melanoma): 72.8 µM
- GI50 (MCF7 breast): 10.3 µM
- TGI (MCF7 breast): 42.3 µM
- GI50 (MDA-MB-231 breast): 4.44 µM
- TGI (MDA-MB-231 breast): 17.6 µM
- GI50 (MDA-MB-435): 23.9 µM
- TGI (MDA-MB-435): > 100 µM
- GI50 (MOLT-4 leukemia): 12.1 µM
- TGI (MOLT-4 leukemia): 24.5 µM
- GI50 (NCI-H226 lung): 4.31 µM
- TGI (NCI-H226 lung): 21.3 µM
- GI50 (NCI-H23 lung): 4.81 µM
- TGI (NCI-H23 lung): 41.2 µM
- GI50 (NCI-H460 lung): 15.2 µM
- TGI (NCI-H460 lung): 35 µM
- GI50 (NCI-H522 lung): 7.09 µM
- TGI (NCI-H522 lung): 29 µM
- GI50 (NCI/ADR-RES ovarian): 10.3 µM
- TGI (NCI/ADR-RES ovarian): 24.3 µM
- GI50 (OVCAR-3 ovarian): 8.04 µM
- TGI (OVCAR-3 ovarian): 47 µM
- GI50 (OVCAR-4 ovarian): 12.5 µM
- TGI (OVCAR-4 ovarian): 34.8 µM
- GI50 (OVCAR-5 ovarian): 13.4 µM
- TGI (OVCAR-5 ovarian): 36.6 µM
- GI50 (OVCAR-8 ovarian): 10 µM
- TGI (OVCAR-8 ovarian): 21.6 µM
- GI50 (PC-3 prostate): 9.12 µM
- TGI (PC-3 prostate): 21.2 µM
- GI50 (RPMI-8226 leukemia): 4.67 µM
- TGI (RPMI-8226 leukemia): 18.6 µM
- GI50 (SF-268 CNS): 11.6 µM
- TGI (SF-268 CNS): 30.1 µM
- GI50 (SF-295 CNS): 15.5 µM
- TGI (SF-295 CNS): 61.9 µM
- GI50 (SF-539 CNS): 4.18 µM
- TGI (SF-539 CNS): 19.1 µM
- GI50 (SK-MEL-2 melanoma): 14.9 µM
- TGI (SK-MEL-2 melanoma): 41.5 µM
- GI50 (SK-MEL-28 melanoma): 25.7 µM
- TGI (SK-MEL-28 melanoma): > 100 µM
- GI50 (SK-MEL-5 melanoma): 8.15 µM
- TGI (SK-MEL-5 melanoma): 20.9 µM
- GI50 (SK-OV-3 ovarian): 29.6 µM
- TGI (SK-OV-3 ovarian): > 100 µM
- GI50 (SN12C renal): 7.79 µM
- TGI (SN12C renal): 24.2 µM
- GI50 (SNB-19 CNS): 17.6 µM
- TGI (SNB-19 CNS): 45.9 µM
- GI50 (SNB-75 CNS): 8.88 µM
- TGI (SNB-75 CNS): 25.1 µM
- GI50 (SR leukemia): 3.56 µM
- TGI (SR leukemia): 14.9 µM
- GI50 (SW-620 colon): 16.3 µM
- TGI (SW-620 colon): 43.6 µM
- GI50 (T-47D breast): 11.4 µM
- TGI (T-47D breast): 78.5 µM
- GI50 (TK-10 renal): 14.3 µM
- TGI (TK-10 renal): 30.7 µM
- GI50 (U251 CNS): 9.92 µM
- TGI (U251 CNS): 21.5 µM
- GI50 (UACC-257 melanoma): 15 µM
- TGI (UACC-257 melanoma): 43.3 µM
- GI50 (UACC-62 melanoma): 11 µM
- TGI (UACC-62 melanoma): 22.9 µM
- GI50 (UO-31 renal): 13 µM
- TGI (UO-31 renal): 30.4 µM
